From patent US11826326B2, “Benzoic acid or a salt and derivative thereof for use in preventing or treating depression” (EXCELSIOR PHARMATECH LABS, priority 2017, dated 2023)

How the values were obtained:
[1] = test system: patients with dementia; details: depression in patients with dementia; cited from earlier work
[2] = test system: D-amino acid oxidase (DAAO); details: cited from earlier work
[3] = test system: patients with MDD; assay: Perceived stress scale (PSS) in randomized, double-blind, placebo-controlled trial; format: in vivo, human; details: for PSS Difference, Mean ± SD: baseline to week 8, 250-1500 mg/day, n = 20, p=0.022 vs placebo
Protocol: (§1) It was conducted a randomized, double-blind, placebo-controlled trial in Taiwan. […] At the baseline and at the end of week 2, 4, 6 and 8, the assessments of 17-Item Hamilton rating scale for depression (HAMD-17) (Hamilton 1960), perceived stress scale (PSS), and global assessment of function (GAF) were arranged.
(§2) This study was a pilot eight weeks trial with the aim of examining sodium benzoate for the treatment of MDD. Patients were evaluated by research psychiatrists after a thorough medical and neurological workup. The structured clinical interview for DSM-IV (SCID) (American Psychiatric Association 1994) was conducted for diagnosis, and eligible patients diagnosed with MDD by DSM-IV (American Psychiatric Association 1994b) were recruited. […] The dosage of study drugs was adjusted according to clinical evaluation.
(§3) The data analyses were based on the intent-to-treat principle. The last observation carried forward was used to analyze all available data from the entire sample (i.e., cases with complete and incomplete data). A level of 0.05 (two-sided value) for type I errors was adopted for all analyses for statistical significance. Demographic characteristics, baseline and endpoint symptomatology were compared between two groups by t test (or Mann-Whitney U test) for continuous variables and chi-square test (or Fisher's exact test) for categorical variables.

[4] = test system: patients with MDD; assay: Mini-mental state examination (MMSE) score of single subjects of the treatment group; format: in vivo, human; details: for MMSE score before treatment: baseline
Source text: At the same time, the mini-mental state examination (MMSE) score, which is used to evaluate cognitive impairment, has improved from 26 to 30. […] Furthermore, person two has a decrease of HAMD-17 score from 26 to 12, and improved cognitive function as shown by an increased MMSE score from 23 to 26.

[5] = test system: patients with MDD; assay: Safety assessment: UKU side-effects rating scale, routine laboratory tests, EKG, dropout; format: in vivo, human
Protocol: In addition, the assessments of systemic side effects were examined biweekly by routine physical and neurological examinations and the Udvalg for Kliniske Undersogelser (UKU) side-effects rating scale (Lingjaerde, Ahlfors et al. 1987). The routine laboratory tests, including complete blood count (CBC), biochemistry, urine analysis and electrocardiogram (EKG), were checked at the baseline and at the end of week 8.
Further, clinical assessment of safety was performed every week during the study period by face-to-face or telephone interview. Drop out was determined by research psychiatrists or patients if continuation of the study was regarded obviously more risky than beneficial.

[6] = test system: patients with MDD; assay: 17-Item Hamilton rating scale for depression (HAMD-17) in randomized, double-blind, placebo-controlled trial; format: in vivo, human; details: for HAMD-17 Difference, Mean ± SD: baseline to week 8, 250-1500 mg/day, n = 20, p=0.011 vs placebo; for HAMD-17 score before treatment: baseline
Protocol: as §1, §2, §3

[7] = test system: patients with MDD; assay: Global assessment of function (GAF) in randomized, double-blind, placebo-controlled trial; format: in vivo, human; details: for GAF Difference, Mean ± SD: baseline to week 8, 250-1500 mg/day, n = 20, table p 0.103 vs placebo
Protocol: as §1
as §2, with “Patients” for “This study was a pilot eight weeks trial with the aim of examining sodium benzoate for the treatment of MDD. Patients”
as §3

[8] = week 0, n = 20, before treatment
[9] = single subject one, after 8 weeks
[10] = single subject three, after treatment
[11] = single subject two, after treatment

CN1CCN2c3ncccc3Cc3ccccc3C2C1 (stereo not drawn) [mirtazapine]
reduction of depression scores compared with placebo [1]: did not differ from the placebo group

CN[C@H]1CC[C@@H](c2ccc(Cl)c(Cl)c2)c2ccccc21 [sertraline]
reduction of depression scores compared with placebo [1]: did not differ from the placebo group

O=C(O)c1ccccc1 [Benzoic acid]
inhibition of DAAO activity [2]: can inhibit DAAO activity

O=C([O-])c1ccccc1.[Na+] [sodium benzoate]
improvement in PSS scores compared with placebo therapy ([3]; 8 weeks): greater improvement | PSS Endpoint, Mean ± SD ([3]; after 8 weeks, 250-1500 mg/day, n = 20, LOCF, p 0.019 vs placebo): 28.9 ± 10.8 | PSS Difference, Mean ± SD [3]: 6.4±9.9 | PSS Difference, Mean ± SD ([3]; listed as Benzoate): −6.4 ± 9.9 | PSS Baseline, Mean ± SD [3, 8]: 35.2 ± 5.8 | MMSE score after treatment [4, 9]: 30 | MMSE score before treatment ([4]; single subject one): 26 | MMSE score after treatment [4, 10]: 25 | MMSE score before treatment ([4]; single subject three): 23 | MMSE score after treatment [4, 11]: 26 | MMSE score before treatment ([4]; single subject two): 23 | Treatment-emergent adverse events by UKU side-effects rating scale ([5]; 8-week treatment): mild and not warranting medical treatment | dropout due to side effects ([5]; 8-week treatment): No dropout was due to side effects | values of routine CBC, biochemistry and EKG tests after treatment ([5]; baseline and end of week 8): all within the normal ranges without a significant change | commonly seen side effects of anti-depression medication (nausea, nervousness, restlessness, irregular heart rate, sweating, constipation) ([5]; subjects from the treatment group): not observed | improvement in HAMD-17 scores compared with placebo therapy ([6]; 8 weeks): greater improvement | HAMD-17 Endpoint, Mean ± SD ([6]; after 8 weeks, 250-1500 mg/day, n = 20, LOCF): 19.3 ± 6.4 | HAMD-17 Difference, Mean ± SD [6]: 7.5±4.9 | HAMD-17 Difference, Mean ± SD ([6]; listed as Benzoate): −7.5 ± 4.9 | HAMD-17 score decrease ([6]; single subject one, 8 weeks): 20 | HAMD-17 score after treatment [6, 9]: 4 | HAMD-17 score before treatment ([6]; single subject one): 24 | HAMD-17 score decrease ([6]; single subject three): 16 | HAMD-17 score after treatment [6, 10]: 15 | HAMD-17 score before treatment ([6]; single subject three): 31 | HAMD-17 score after treatment [6, 11]: 12 | HAMD-17 score before treatment ([6]; single subject two): 26 | HAMD-17 Baseline, Mean ± SD [6, 8]: 26.7 ± 5.2 | improvement in GAF scores compared with placebo therapy ([7]; 8 weeks): slightly greater improvement | GAF Difference, Mean ± SD [7]: 5.5±6.0 | GAF Difference, Mean ± SD ([7]; listed as Benzoate): 5.5 ± 6.0 | GAF Baseline, Mean ± SD [7, 8]: 57.4 ± 8.4 | inhibition of DAAO activity [2]: can inhibit DAAO activity
